According to ChEMBL document CHEMBL1177713, “Discovery of 3-[2-(imidazo[1,2-b]pyridazin-3-yl)ethynyl]-4-methyl-N-{4-[(4-methylpiperazin-1-yl)methyl]-3-(trifluoromethyl)phenyl}benzamide (AP24534), a potent, orally active pan-inhibitor of breakpoint cluster region-abelson (BCR-ABL) kinase including the T315I gatekeeper mutant” (J Med Chem, 2010):
pIC50: −log10 of the molar value.

What was measured:
[1] = Half life in CD rat at 5 mg/kg, iv by LC-MS/MS analysis; type: ADME, organism-based; parameters: dose 5 mg/kg, route intravenous; conditions: in vivo
BaF3 [2] = test: cells; conditions: Mus musculus, BaF3, 72 h
Description: Antiproliferative activity against mouse BA/F3 cells expressing ABL T315I mutant after 3 days by MTS assay

BaF3 [3] = test: cells; conditions: Mus musculus, BaF3, 72 h; remark: listed apart in the source
Description: Antiproliferative activity against mouse BA/F3 cells after 3 days by MTS assay

[4] = Volume of distribution in CD rat at 5 mg/kg, iv by LC-MS/MS analysis; type: ADME, organism-based; parameters: dose 5 mg/kg, route intravenous; conditions: in vivo
Rattus norvegicus [5] = test: Dose normalized AUC (0 to 24 hrs) in CD rat at 15 mg/kg, po by LC-MS/MS analysis; type: ADME, organism-based; parameters: time < 24 hr, dose 15 mg/kg, route oral; conditions: in vivo
BaF3 [6] = test: cells; conditions: Mus musculus, BaF3, 72 h; remark: listed apart in the source
Description: Antiproliferative activity against mouse BA/F3 cells expressing wild type ABL after 3 days by MTS assay

Rattus norvegicus [7] = test: (§1) Cmax in CD rat at 15 mg/kg, po by LC-MS/MS analysis; type: ADME, organism-based; parameters: dose 15 mg/kg, route oral; conditions: in vivo, BLD = below limit of detection
[8] = Clearance in CD rat at 5 mg/kg, iv by LC-MS/MS analysis; type: ADME, organism-based; parameters: dose 5 mg/kg, route intravenous; conditions: in vivo
K562 = test: cells; conditions: Homo sapiens, K562, 72 h
Description: Antiproliferative activity against human K562 cells expressing wild type ABL after 3 days by MTS assay

Mus musculus [9] = test: Plasma concentmouseion in CD mouse at 30 mg/kg, po after 2 hrs by LC-MS/MS analysis
[10] = Tmax in CD rat at 15 mg/kg, po by LC-MS/MS analysis; type: ADME, organism-based; parameters: dose 15 mg/kg, route oral; conditions: in vivo
[11] = Half life in CD rat at 15 mg/kg, po by LC-MS/MS analysis; type: ADME, organism-based; parameters: dose 15 mg/kg, route oral; conditions: in vivo
[12] = Oral bioavailability in CD rat at 15 mg/kg by LC-MS/MS analysis; type: ADME, organism-based; conditions: in vivo
Mus musculus [13] = test: Plasma concentmouseion in CD mouse at 30 mg/kg, po after 6 hrs by LC-MS/MS analysis
Mus musculus [14] = test: Plasma concentration in mouse at 30 mg/kg, po after 24 hrs by LC-MS/MS analysis
[15] = as §1; type: ADME, organism-based; parameters: dose 15 mg/kg, route oral; conditions: CD, in vivo

| half-life [1] [h] | pIC50 (BaF3 [2]) | pIC50 (BaF3 [3]) | Vd [4] [L/kg] | AUC (Rattus norvegicus [5]; BLD = below limit of detection) | pIC50 (BaF3 [6]) | Cmax (Rattus norvegicus [7]) | clearance [8] [mL/min/kg] | pIC50 (K562) | concentration at 2 h (Mus musculus [9]) [ng/mL] | Tmax [10] [h] | half-life [11] [h] | bioavailability [12] [%] | AUC (Rattus norvegicus [5]) [ng·h/mL/mg/kg] | concentration at 6 h (Mus musculus [13]) [ng/mL] | concentration at 24 h (Mus musculus [14]) [ng/mL] | Cmax [15] [ng/mL] | SMILES |
| --- | --- | --- | --- | --- | --- | --- | --- | --- | --- | --- | --- | --- | --- | --- | --- | --- | --- |
| 5 | 7.51 | 5.73 | 17.7 | BLD | 8.41 | BLD | 40.7 | – | – | – | – | – | – | – | – | – | Cc1ccc(C(=O)Nc2ccc(CN3CCN(C)CC3)c(C(F)(F)F)c2)cc1C#Cc1cnc2[nH]c(=O)[nH]c2c1 |
| – | 6.53 | – | – | – | – | – | – | 8.85 | – | – | – | – | – | – | – | – | Cc1cn(-c2cc(NC(=O)c3ccc(C)c(/C=C/n4cnc5c(N)ncnc54)c3)cc(C(F)(F)F)c2)cn1 |
| 5.9 | 7.46 | 5.20 | 3.1 | – | 8.21 | – | 6.17 | – | 2480 | 6 | 11.6 | 62.3 | 1707.5 | 2100 | 163 | 1180 | CN1CCN(Cc2ccc(NC(=O)c3ccc(F)c(C#Cc4cnc5cccnn45)c3)cc2C(F)(F)F)CC1 |
| 8.9 | 8.14 | 5.94 | 13.1 | – | 9.00 | – | 17 | – | 622 | 6 | 22.3 | 53 | 518 | 387 | 8.8 | 215 | CCN1CCN(Cc2ccc(NC(=O)c3ccc(C)c(C#Cc4cnc5cccnn45)c3)cc2C(F)(F)F)CC1 |
